Patent publication US20140100107A1, “TERNARY FUNGICIDAL COMPOSITIONS COMPRISING A DITHIINO-TETRACARBOXAMIDE FUNGICIDE” (BAYER INTELLECTUAL PROPERTY GMBH, priority 2011, published 2014)

System: Alternaria solani
Experiment: Alternaria test (tomatoes)/preventive
Format: in vivo
Conditions: preventive spray, evaluated 3 days after inoculation
Method: Alternaria Test (Tomatoes)/Preventive [table] To produce a suitable preparation of active compound, 1 part by weight of active compound is mixed with the stated amounts of solvent and emulsifier, and the concentrate is diluted with water to the desired concentration. To test for preventive activity, young plants are sprayed with the preparation of active compound at the stated rate of application. After the spray coating has dried on, the plants are inoculated with an aqueous spore suspension of Alternaria solani. The plants are then placed in an incubation cabinet at approximately 20° C. and a relative atmospheric humidity of 100%. The test is evaluated 3 days after the inoculation. 0% means an efficacy which corresponds to that of the untreated control while an efficacy of 100% means that no disease is observed.

## Cn1c(=O)c2sc3c(=O)n(C)c(=O)c3sc2c1=O [(1.1), 2,6-dimethyl-1H,5H-[1,4]dithiino[2,3-c:5,6-c′]dipyrrole-1,3,5,7(2H,6H)-tetrone]
Application rate 10 ppm a.i.
  Efficacy in % found (activity found): 0%

## O=C(NCCc1ncc(C(F)(F)F)cc1Cl)c1ccccc1C(F)(F)F [(2.6), fluopyram]
Application rate 1 ppm a.i.
  Efficacy in % found (activity found): 7%

## CC(C)(C)C(O)(CCc1ccc(Cl)cc1)Cn1cncn1 (stereo not drawn) [(3.47), tebuconazole]
Application rate 1 ppm a.i.
  Efficacy in % found (activity found): 21%
